Results from patent US12486259B2, “FXR agonist having pyrazine structure, and preparation method and use” (JIANGSU TASLY DIYI PHARMACEUTICAL CO., LTD., priority 2020, dated 2025).

Assays:
[1] = biological target: T1, GST-labeled recombinant human FXR protein (Homo sapiens, UniProt Q96RI1); assay: Agonistic activity on FXR receptor (GST-FXR / SRC-1 bead assay, protein level); assay type: biochemical; settings: 0.4 nM FXR, 30 nM SRC-1, protein level
T1 construct: purchased Invitroren (so in the source)
T1 sequence (Q96RI1 262-486 limits assumed): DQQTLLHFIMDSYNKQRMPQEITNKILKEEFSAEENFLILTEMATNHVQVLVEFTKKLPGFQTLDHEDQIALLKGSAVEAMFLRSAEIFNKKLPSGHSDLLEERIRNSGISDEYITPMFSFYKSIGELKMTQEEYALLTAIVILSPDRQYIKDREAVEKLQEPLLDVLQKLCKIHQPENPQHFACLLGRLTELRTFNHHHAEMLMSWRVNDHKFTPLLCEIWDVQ
T1 sequence (Q15788 676-700 partner limits assumed): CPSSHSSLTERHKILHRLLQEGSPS
Method: Experimental procedures: FXR (GST-labeled recombinant human FXR protein, manufacturer: Invitroren, Item number: PV4835) and SRC-1 (steroid receptor co-activator-1) are thawed on ice. Three solutions of ABC are prepared by a buffer solution, solution A, 0.4 n M FXR and 30 nM SRC-1; solution B, 10 ug/ml Acceptor Beads; solution C, 10 ug/ml Donor Beads. Solution A is added to the plate at 15 uL per well. It is incubated at room temperature for 1 hour. Solution B is added to the plate at 7.5 uL per well. It is incubated at room temperature for 1 hour. Solution C is added to the plate at 7.5 uL per well. It is incubated at room temperature for 1 hour. It is read from the microplate reader Envision. The data are curve fitted by using Prism 5.0 to calculate the EC50.

in vitro = settings: human; for efflux ratio: Caco-2; for Papp B→A: Caco-2, Papp B-A; for recovery: Caco-2, Recovery rate A-B
Method: The bi-directional transport of target compounds from apical side (AP) to basolateral side (BL) and from BL side to AP side is studied by using human colon adenocarcinoma cell line Caco-2 monolayer model. The transport parameters, apparent permeability coefficient (Papp) and efflux ratio are calculated by quantitative analysis with high performance liquid chromatography (HPLC).

[2] = Caco-2, Papp, A-to-B values (highly permeable substrates)

EC50 [1] [nM] | efflux ratio (in vitro) | Papp A→B (in vitro; Caco-2, Papp A-B) [×10⁻⁶ cm/s] | Papp A→B (in vitro; Caco-2, Papp A-B, Average) [×10⁻⁶ cm/s] | Papp A→B (in vitro; Caco-2, Papp A-B, Sample-01) [×10⁻⁶ cm/s] | Papp A→B (in vitro; Caco-2, Papp A-B, Sample-02) [×10⁻⁶ cm/s] | Papp B→A (in vitro) [×10⁻⁶ cm/s] | Papp A→B (in vitro; [2]) [×10⁻⁶ cm/s] | recovery (in vitro; Average) [%] | recovery (in vitro; Sample-01) [%] | recovery (in vitro; Sample-02) [%] | Compound
540 | 3.95 | 8.25 | 8.17 | 6.42 | 9.91 | 32.6 | > 2.5 | 71.2 | 63.9 | 78.5 | O=C(O)c1cccc(C2CC(O)(c3cnc(OCc4c(-c5c(Cl)cccc5Cl)noc4C4CC4)cn3)C2)c1 (centres unmarked) [TM-01, 3-(3-(5-(5-cyclopropyl-3-(2,6-dichlorophenyl)isoxazole-4-ylmethoxy)-2-pyrazine)-1-hydroxycyclobutane) benzoic acid]
2320 | 3.75 | 8.87 | 9.02 | 8.57 | 9.47 | 33.3 | > 2.5 | 70.8 | 64.9 | 76.8 | O=C(O)c1cccc(N2CC(O)(c3cnc(OCc4c(-c5c(Cl)cccc5Cl)noc4C4CC4)cn3)C2)c1 [TM-02, 3-(3-(5-((5-cyclopropyl-3-(2,6-dichlorophenyl)isoxazol-4-yl)methoxy)pyrazine-2-yl)-3-hydroxyazetidin-1-yl) benzoic acid]
2410 | 5.12 | 7.54 | 7.17 | 7.86 | 6.48 | 38.6 | > 2.5 | 74.2 | 81 | 67.3 | CC(C)c1onc(-c2c(Cl)cccc2Cl)c1COc1cnc(C2(O)CC(c3cccc(C(=O)O)c3)C2)cn1 (centres unmarked) [TM-06, 3-(3-(5-(5-isopropyl-3-(2,6-dichlorophenyl)isoxazole-4-ylmethoxy)-2-pyrazine)-1-hydroxycyclobutane) benzoic acid]
480 | 4.22 | 6.91 | 8.75 | 8.46 | 9.05 | 29.2 | > 2.5 | 81.4 | 80.9 | 82 | Cc1cc(C(=O)O)cc(C2CC(O)(c3cnc(OCc4c(-c5c(Cl)cccc5Cl)noc4C(C)C)cn3)C2)c1 (centres unmarked) [TM-09, 3-(3-(5-((3-(2,6-dichlorophenyl)-5-isopropylisoxazol-4-yl)methoxy)pyrazine-2-yl)-3-hydroxycyclobutyl)-5-methyl benzoic acid]
